Laboratory results from patent US20210317099A1, “SAFER, POTENT, AND FAST ACTING ANTIMICROBIAL AGENTS” (Purdue Research Foundation, priority 2020, published 2021).
In brackets after ≈: the same amount, converted by molar mass. Read-outs that look alike come from different tables or passages of the source.

What was measured:
[1] = In vitro cytotoxicity, MTS assay; format: cell-based, human; conditions: human, Caco-2 cells; Caco-2, two hours incubation, MTS; read-out: 50% cytotoxic concentration (CC50)
Experimental: Compounds 144, 148, 151, 155, 158, and 187 were assayed (at concentrations of 16, 32, and 64 μg/mL) against a human colorectal adenocarcinoma (Caco-2) cell to determine the potential toxic effect to mammalian cells in vitro. Briefly, cells were cultured in Dulbecco's Modified Eagle Medium (DMEM) supplemented with 10% fetal bovine serum (FBS), non-essential amino acids (1×), penicillin-streptomycin at 37° C. in presence of 5% CO2. Control cells received DMSO alone at a concentration equal to that in drug-treated wells. The cells were incubated with the compounds (in triplicate) in a 96-well plate at 37° C. with 5% CO2 for two hours. This was followed by the subsequent addition of the assay reagent MTS 3-(4,5-dimethylthiazol-2-yl)-5-(3-carboxymethoxyphenyl)-2-(4-sulfophenyl)-2H-tetrazolium) (Promega, Madison, Wis., USA) and the plate was incubated for three to four hours. Absorbance readings (at OD490) were recorded using a kinetic microplate reader (Molecular Devices, Sunnyvale, Calif., USA). The quantity of viable cells after treatment with each compound was expressed as a percentage of the viability of DMSO-treated control cells (average of triplicate wells±standard deviation).
FIG. 3. Analyzing the toxicity of 144, 148, 151, 155, 158, and 187 compounds (tested in triplicates at 16, 32 and 64 μg/mL) against human colorectal cells (Caco-2) using the MTS 3-(4,5-dimethylthiazol-2-yl)-5-(3-carboxymethoxyphenyl)-2-(4-sulfophenyl)-2H-tetrazolium) assay. Results are presented as percent viable cells relative to DMSO (negative control) to determine a baseline measurement for the cytotoxic impact of each compound. The absorbance values represent an average of three samples analyzed for each compound. Error bars represent standard deviation values. The data were analyzed via a two-way ANOVA with post-hoc Dunnett's test for multiple comparisons. An asterisk (*) denotes statistical significance (P<0.05) between results for compounds and DMSO.

MRSA NRS 386 = experiment: MIC, Gram-positive panel; format: cell-based; conditions: Staphylococcus aureus; MRSA NRS 386; read-out: MIC
Experimental: (§1) Next, the spectrum of antibacterial activity of compounds 144, 148, 149, 151, 155, 158, and 187 was examined against a panel of clinically relevant Gram-positive bacterial pathogens including methicillin-resistant Staphylococcus aureus (MRSA), vancomycin-resistant Staphylococcus aureus (VRSA), vancomycin-resistant Enterococcus faecalis and Enterococcus faecium (VRE), and Streptococcus pneumoniae. Bacterial strains were grown aerobically overnight on tryptone soya agar plates at 37° C. Afterwards, a bacterial solution equivalent to 0.5 McFarland standard was prepared and diluted in cation-adjusted Mueller-Hinton broth (CAMHB) (for staphylococci). Enterococci and Streptococci were diluted in tryptone soya broth (TSB) to achieve a bacterial concentration of about 5×10^5 CFU/mL and seeded in 96-well plates. Compounds and control drugs were added in the first row of 96-well plates and serially diluted with media containing bacteria. Plates were then, incubated aerobically at 37° C. for 18-20 hours (except for S. pneumoniae, which was incubated at 37° C. in presence of 5% CO2 for 18-20 hours).

S. aureus ATCC 6538 = experiment: MIC, Gram-positive panel; format: cell-based; conditions: Staphylococcus aureus, ATCC6538; S. aureus ATCC 6538; read-out: MIC
Experimental: as §1

[2] = tested on: Methicillin-resistant S. epidermidis NRS101; experiment: MIC, Gram-positive panel; format: cell-based; conditions: Staphylococcus epidermidis; Methicillin-resistant S. epidermidis NRS101; read-out: MIC
Experimental: as §1

[3] = tested on: Enterococcus faecium ATCC 700221 (VRE); experiment: MIC, Gram-positive panel; format: cell-based; conditions: Enterococcus faecium ATCC 700221 (VRE); read-out: MIC
Experimental: as §1

[4] = tested on: Methicillin-resistant S. pneumoniae ATCC 700677; experiment: MIC, Gram-positive panel; format: cell-based; conditions: Streptococcus pneumoniae, ATCC700677; Methicillin-resistant S. pneumoniae ATCC 700677; read-out: MIC
Experimental: as §1

S. pneumoniae ATCC 51916 = experiment: MIC, Gram-positive panel; format: cell-based; conditions: Streptococcus pneumoniae, ATCC51916; S. pneumoniae ATCC 51916; read-out: MIC
Experimental: as §1

MRSA NRS 123 = experiment: MIC, Gram-positive panel; format: cell-based; conditions: Staphylococcus aureus; MRSA NRS 123; read-out: MIC
Experimental: as §1

MRSA NRS 385 = experiment: MIC, Gram-positive panel; format: cell-based; conditions: Staphylococcus aureus; MRSA NRS 385; read-out: MIC
Experimental: as §1

S. aureus NRS 107 = experiment: MIC, Gram-positive panel; format: cell-based; conditions: Staphylococcus aureus, NRS107; S. aureus NRS 107; read-out: MIC
Experimental: as §1

VRSA 12 = experiment: MIC, Gram-positive panel; format: cell-based; conditions: Staphylococcus aureus; VRSA 12; read-out: MIC
Experimental: as §1

[5] = tested on: Enterococcus faecalis ATCC 51299 (VRE); experiment: MIC, Gram-positive panel; format: cell-based; conditions: Enterococcus faecalis ATCC 51299 (VRE); read-out: MIC
Experimental: as §1

VRSA 10 = experiment: MIC, Gram-positive panel; format: cell-based; conditions: Staphylococcus aureus; VRSA 10; read-out: MIC
Experimental: as §1

MRSA NRS 119 = experiment: MIC, Gram-positive panel; format: cell-based; conditions: Staphylococcus aureus; MRSA NRS 119; read-out: MIC
Experimental: as §1

[6] = tested on: Staphylococcus aureus NRS384 (MRSA USA300); experiment: Initial MIC screening, broth microdilution (CLSI); format: cell-based; conditions: for potency compared with control antibiotic: MRSA USA300, Table 1 assay; for MIC: Staphylococcus aureus NRS384 (MRSA USA300), broth microdilution, visual reading
How it was run: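 MRSA USA300 grown 24 h at 37 °C on tryptic soy agar, then adjusted to 5×10^5 CFU/ml in cation-adjusted Mueller-Hinton broth. Compounds serially diluted 64 to 0.5 μg/mL per CLSI broth microdilution; MIC recorded.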

[7] = Staphylococcus aureus, read-out: MIC

Row | Structure (SMILES) | CC50 at 2 h [1] [µg/mL] | MIC (MRSA NRS 386) [µg/mL] | MIC (S. aureus ATCC 6538) [µg/mL] | MIC [2] [µg/mL] | MIC [3] [µg/mL] | MIC [4] [µg/mL] | MIC (S. pneumoniae ATCC 51916) [µg/mL] | MIC (MRSA NRS 123) [µg/mL] | MIC (MRSA NRS 385) [µg/mL] | MIC (S. aureus NRS 107) [µg/mL] | MIC (VRSA 12) [µg/mL] | MIC [5] [µg/mL] | MIC (VRSA 10) [µg/mL] | MIC (MRSA NRS 119) [µg/mL] | potency compared with control antibiotic [6] | MIC [6] [µg/mL] | MIC [6, 7] [µg/mL]
1 | C=C(C(=O)OC)C(c1ccc2ccccc2c1)C(O)c1cccc2ccccc12 (stereo not shown) [Compound 148] | > 64 | 1 (≈ 2.61 µM) | 1 (≈ 2.61 µM) | 1 (≈ 2.61 µM) | > 64 | 1 (≈ 2.61 µM) | 1 (≈ 2.61 µM) | 1 (≈ 2.61 µM) | 1 (≈ 2.61 µM) | 1 (≈ 2.61 µM) | 2 (≈ 5.23 µM) | > 64 | 2 (≈ 5.23 µM) | 1 (≈ 2.61 µM) | potency comparable to vancomycin | 2 (≈ 5.23 µM) | 1 to 2 (≈ 2.61 to 5.23 µM)
2 | C=C1C(=O)O[C@H](c2ccccc2)[C@@H]1c1cccc2ccccc12 [Compound 151] | > 64 | 1 (≈ 3.33 µM) | 2 (≈ 6.66 µM) | 8 (≈ 26.6 µM) | > 64 | 4 (≈ 13.3 µM) | 4 (≈ 13.3 µM) | 2 (≈ 6.66 µM) | 1 (≈ 3.33 µM) | 2 (≈ 6.66 µM) | 2 (≈ 6.66 µM) | > 64 | 2 (≈ 6.66 µM) | 2 (≈ 6.66 µM) | potency similar to the oxazolidinone class of antimicrobial drug linezolid | 1 (≈ 3.33 µM) | 1 to 2 (≈ 3.33 to 6.66 µM)
3 | C=C1C(=O)O[C@H](c2cccc3ccccc23)[C@@H]1c1ccc2ccccc2c1 [Compound 155] |  | 1 (≈ 2.85 µM) | 1 (≈ 2.85 µM) | 1 (≈ 2.85 µM) | > 64 | 1 (≈ 2.85 µM) | 1 (≈ 2.85 µM) | 1 (≈ 2.85 µM) | 1 (≈ 2.85 µM) | 1 (≈ 2.85 µM) | 2 (≈ 5.71 µM) | > 64 | 1 (≈ 2.85 µM) | 1 (≈ 2.85 µM) | potency comparable to vancomycin | 2 (≈ 5.71 µM) | 1 to 2 (≈ 2.85 to 5.71 µM)
4 | C=C1C(=O)O[C@H](c2ccc3ccccc3c2)[C@@H]1c1ccc2ccccc2c1 [Compound 158] | > 64 | 1 (≈ 2.85 µM) | 1 (≈ 2.85 µM) | 0.5 (≈ 1.43 µM) | > 64 | 2 (≈ 5.71 µM) | 2 (≈ 5.71 µM) | 1 (≈ 2.85 µM) | 1 (≈ 2.85 µM) | 1 (≈ 2.85 µM) | 2 (≈ 5.71 µM) | > 64 | 1 (≈ 2.85 µM) | 1 (≈ 2.85 µM) | potency comparable to vancomycin | 2 (≈ 5.71 µM) | 1 to 2 (≈ 2.85 to 5.71 µM)
